Source: ChEMBL document CHEMBL5512620, “Design and synthesis of forsythin derivatives as anti-inflammatory agents for acute lung injury” (Eur J Med Chem, 2024)

Test system: RAW264.7
Assay: Cytotoxicity activity mouse RAW264.7 cells assessed as effect on cell viability at 25 uM incubated for 24 hrs by MTT assay
Assay type: toxicity, cell-based
Settings: raw264.7, 24 h

Structure (SMILES) | Activity
COc1ccc([C@@H]2OC[C@H]3[C@@H]2CO[C@@H]3c2ccc(O[C@H]3O[C@H](COC(=O)c4cn(-c5ccc(Cl)cc5)nn4)[C@@H](O)[C@H](O)[C@H]3O)c(OC)c2)cc1OC | Non-Toxic
COc1ccc([C@H]2OC[C@@H]3[C@H]2CO[C@@H]3c2ccc(O[C@@H]3O[C@@H](COC(=O)c4cc5ccccc5cn4)[C@H](O)[C@@H](O)[C@@H]3O)c(OC)c2)cc1OC (stereo in doubt) | Non-Toxic
COc1ccc([C@H]2OC[C@@H]3[C@H]2CO[C@@H]3c2ccc(O[C@@H]3O[C@@H](COC(=O)c4cnc5ccccc5c4)[C@H](O)[C@@H](O)[C@@H]3O)c(OC)c2)cc1OC (stereo in doubt) | Non-Toxic
COc1cccc(C(=O)OC[C@H]2O[C@H](Oc3ccc([C@H]4OC[C@H]5[C@@H]4CO[C@H]5c4ccc(OC)c(OC)c4)cc3OC)[C@H](O)[C@@H](O)[C@@H]2O)c1 | Non-Toxic
COc1ccc([C@@H]2OC[C@H]3[C@@H]2CO[C@@H]3c2ccc(O[C@H]3O[C@H](COC(=O)c4cn(-c5ccc(C)cc5)nn4)[C@@H](O)[C@H](O)[C@H]3O)c(OC)c2)cc1OC | Non-Toxic
COc1ccc([C@@H]2OC[C@H]3[C@@H]2CO[C@@H]3c2ccc(O[C@H]3O[C@H](COC(=O)[C@H](Cc4c[nH]c5ccccc45)NC(=O)OC(C)(C)C)[C@@H](O)[C@H](O)[C@H]3O)c(OC)c2)cc1OC | Non-Toxic
COc1ccc(/C=C/C(=O)OC[C@H]2O[C@H](Oc3ccc([C@H]4OC[C@H]5[C@@H]4CO[C@H]5c4ccc(OC)c(OC)c4)cc3OC)[C@H](O)[C@@H](O)[C@@H]2O)cc1 | Non-Toxic
COc1ccc(-n2cc(C(=O)OC[C@H]3O[C@H](Oc4ccc([C@H]5OC[C@H]6[C@@H]5CO[C@H]6c5ccc(OC)c(OC)c5)cc4OC)[C@H](O)[C@@H](O)[C@@H]3O)nn2)cc1 | Non-Toxic
